Like-named read-outs stand apart in the source and are kept apart here.
Tests used:
glucose assimilation = settings: comparable to the effect of 200 nM insulin; cited from earlier work
[1] = system: glucose transporters (GLUT 1 and GLUT 4); settings: cited from earlier work
pyruvate dehydrogenase = settings: cited from earlier work
[2] = closed and sealed amber container, cited from earlier work
[3] = Storage stability of magnesium R-(+)-α-lipoate at room temperature / ambient humidity
Description: Test samples of magnesium R-(+)-α-lipoate were stored at ambient temperatures for two years.

diabetic neuropathy = settings: >600 mg/day; cited from earlier work
nerve function = settings: 600 or 1200 mg daily, 24 months; cited from earlier work
[4] = system: neuropathy impairment score; settings: 600 mg daily for 6 months, 509 patients; cited from earlier work
[5] = system: cardiac autonomic neuropathy; settings: 800 mg daily, 4 months, diabetic patients with cardiac autonomic neuropathy; cited from earlier work
diabetic polyneuropathy = settings: 3-week period; cited from earlier work
[6] = system: neuropathic symptoms and deficits; settings: 600 mg/day over a 3-week period; cited from earlier work
[7] = ambient temperatures, two years

O=C(O)CCCCC1CCSS1 (stereo not drawn) [R-(+)-α-lipoic acid]
stimulation of glucose assimilation (factor) (glucose assimilation): greater than 2
translocation of GLUT 1 and GLUT 4 from the cytosol to the plasma membrane [1]: stimulated
activity of pyruvate dehydrogenase (pyruvate dehydrogenase): increased
storage stability ([2]; refrigerated temperatures): must be used within a few months
visible signs of polymerization or degradation [3, 7]: clumping of the compound, development of a strong sulfur odor, and formation of small and visible gummy balls of dark yellow material

O=C(O)CCCC[C@@H]1CCSS1 [magnesium R-(+)-α-lipoate, magnesium R-(+)-alpha-lipoate]
hygroscopicity ([3]; ambient environments, relative humidities as high as 75%): not hygroscopic
chemical composition, purity and chiral purity on storage [3, 7]: did not change during storage under these conditions
physical state / appearance and properties on storage [3, 7]: did not change over time
visible signs of polymerization or degradation [3, 7]: no visible signs of polymerization or degradation
physical appearance and properties on storage ([3]; room temperature, relative humidities as high as 75%, one week): did not change during storage

O=C(O)CCCCC1CCSS1 (stereo not drawn) [α-lipoic acid, 1,2-dithiocyclopentane-3-valeric acid]
storage stability ([2]; room temperature): a year or longer
patient symptoms (diabetic neuropathy): significantly improved patient symptoms
nerve function (nerve function): improved nerve function
neuropathy impairment score [4]: improved neuropathy impairment score as early as 19 days
heart rate variability [5]: significantly improved
sensory symptoms (Total Symptom Score) (diabetic polyneuropathy): improved sensory symptoms
positive neuropathic symptoms and neuropathic deficits; safety [6]: safe and effective

S-(−)-α-lipoic acid [S-(−)-α-lipoate]
stimulation of glucose assimilation (factor) (glucose assimilation): little or no change
total content of glucose transporters [1]: appeared to lower
translocation of GLUT 1 and GLUT 4 from the cytosol to the plasma membrane [1]: had no effect or has an inhibiting effect
activity of pyruvate dehydrogenase (pyruvate dehydrogenase): inhibited
